Literature values, collected in US20070231316A1, “Treatment of Cognitive Dysfunction in Lupus” (priority 2003, published 2007).

Assays:
[1] = NP-SLE patients, after treatment
[2] = in vivo

Row | Compound | GFAP level in CSF [1] | NFL level in CSF [1] | effect on blood-brain barrier [2]
1 | O=P1(N(CCCl)CCCl)NCCCO1 (stereo not drawn) [cyclophosphamide] | marked decline | marked decline | –
2 | lipopolysaccharide [LPS] | – | – | temporary opening of the blood-brain barrier
